# Measurements as given in patent US20050043262A1, “Novel specific inhibitor of the cyclin kinase inhibitor p21Waf1/Cip1 and methods of using the inhibitor” (priority 2000, published 2005).
# Tests used:
# [1] = tested on: MAPK; test: MAPK level (immunoblot) in ODN-transfected breast cancer cells; type: cell-based, human; conditions: ODN-transfected cells compared with controls
# Experimental: Due to the high levels of p21 in these two human breast cancer cell lines, it was reasoned that, in a manner similar to their effect in VSM cells (Weiss, R. H., Joo, A., and Randour, C., J. Biol. Chem., 275: 10285-10290, 2000), antisense ODNs to p21 may result in increased apoptosis and/or cell cycle arrest. […] T47D and MCF7 cells were lipofected with either antisense p21 ODN (200 or 400 nM), the control ODN at the same concentrations, or lipofectin alone (no DNA). MCF7 and T47D cells were grown to confluence, serum starved for 24 hours, and lipofected with antisense p21 or control ODN or lipofectin only. cont refers to nontransfected cells. The cells were subsequently serum stimulated for another 24 hours. A and B, the cells were lysed, and equal protein quantities (20 μg) were electrophoresed and immunoblotted with p21 antibody. The same lysate was immunoblotted with MAPK antibody as a loading control. Density of p21 and MAPK bands was determined and reported as a ratio. C, the cells were transfected as described in A, fixed, subjected to immunohistochemistry with p21 antibody as described in “Immunohistochemistry” in Example VI, and examined under visible light at X400. Control cells (FIG. 30, cont) were not transfected. […] There was no effect of lipofectin alone when compared with no transfection (control).
# [2] = tested on: Met-1 cells; test: Growth of Met-1 cells in culture; type: cell-based, mouse; conditions: transfection
Substance,MAPK levels [1],growth of Met-1 cells in culture [2]
"5′-ATC-CCC-AGC-CGG-TTC-TGA-CAT-3′ (antisense ATCCCCAGCCGGTTCTGACAT; listed as DNA, chemistry not fully specified) [antisense p21 ODN]",lack of modulation,–
5′-GACATCACCAGGATCGGACAT-3′,–,did not affect growth
